Test results as given in patent publication US20240218330A1, “COMPOSITIONS FOR IMPROVING THE TRANSDUCTION OF CELLS BY VIRAL VECTORS” (Ospedale San Raffaele S.r.l., priority 2021, published 2024).

System: unstimulated hHSPC
Assay: lentiviral vector (LV) transduction of unstimulated HSPC, % GFP+ cells by flow cytometry
Type: cell-based, human
Details: for effect on transduction efficiency of quiescent HSPC: in presence of CsH, 4 h pre-exposure to single nucleoside or purine/pyrimidine mix, vs CsH only control, FIG. 3A-D; for LV transduction of unstimulated hHSPC vs DMSO control: FIG. 6D-E
Method: Cyclosporine H (Sigma-Aldrich) was resuspended and stored following the manufacturer's instructions. Where indicated CsH was added to the transduction medium at 8 μM concentration and washed out with the vector 16-20 hours later. dNTPs (NEB N1201AA) were added to the transduction medium where indicated at 10 uM concentration and washed out with the vector 16-20 hours later. dA (D8668), dC (D0776), dG (D0901) and dT (T1895) were all purchased from Sigma-Aldrich and resuspended and stored following the manufacturer's instructions. dNs mix, single dNs or combinations of dNs (500-1000 μM each) were added to the culture media 4 h-2 h before transduction and washed out with the vector 16-20 hours later. For dosage experiment 25 μM to 1000 μM concentrations of each dN was tested.
All cells were transduced at the indicated multiplicity of infection (MOI) as calculated by titration of vector stocks on 293T cells and expressed as transducing units (TU)/293T cell. For transduction, CB-derived HSPC were cultured in serum-free StemSpan medium supplemented with penicillin (100 IU/ml), streptomycin ([…]), 100 ng/ml recombinant human stem cell factor (rhSCF), 20 ng/ml recombinant human thrombopoietin (rhTPO), 100 ng/ml recombinant human Flt3 ligand (rhFlt3), and 20 ng/ml recombinant human IL6 (rhIL6) (all from Peprotech) 16 to 24 hours prior to transduction. Bone marrow and G-CSF mobilized peripheral blood CD34+ cells were cultured in CellGro medium (Cell Genix) supplemented with penicillin (100 IU/ml), streptomycin ([…]) and a cocktail of cytokines: 60 ng/ml IL-3, 100 ng/ml TPO, 300 ng/ml SCF, and 300 ng/ml FLT-3L (all from Cell Peprotech). HSPC were then transduced at a concentration of 1×10^6 cells per milliliter with the vector for 16 hours at the indicated multiplicity of infection (MOI), expressed as transducing units (TU)/293T cell, in the same medium. After transduction cells were washed and maintained in serum-free medium supplemented with cytokines as above until the reading of the percentage of positive cells by FACS, after which they were maintained in IMDM supplemented with 10% FBS, 25 ng/ml rhSCF, 5 ng/ml rhIL6-3, 25 ng/ml rhFlt3 and 5 ng/ml rhTPO. Unstimulated HSPC were transduced freshly isolated in StemSpan or CellGro medium supplemented with penicillin (100 IU/ml), streptomycin ([…]) for 16-24 hours and then maintained in presence of human cytokines and […] of the reverse-transcriptase inhibitor 3TC (from SIGMA) to avoid subsequent transduction due to cytokines stimulation. Unstimulated murine Lin-HSPC were transduced freshly isolated in serum-free StemSpan medium (StemCell Technologies) containing penicillin, streptomycin and glutamine at a concentration of 1×10^6 cells/ml for 16-20 hours and then maintained in presence of a combination of murine cytokines (20 ng/ml IL-3, 100 ng/ml SCF, 100 ng/ml Flt-3L, 50 ng/ml TPO all from Peprotech). MDM were transduced 7-10 days after differentiation. Activated T lymphocytes were transduced at a concentration of 10^6 cells/ml, after 3 days of stimulation with Dynabeads human T-activator CD3/CD28. Total CD14^− PBMC were transduced fresh at a concentration of 10^6 cells/ml for measurement of transduction.
GFP expression in transduced cells was measured 3-5 days post-transduction. Adherent MDM were detached by Tripsin-EDTA, washed and resuspended in PBS containing 2% fetal bovine serum (FBS). Cells grown in suspension were washed and resuspended in PBS containing 2% FBS. To measure HSPC subpopulation composition cells were harvested and incubated with anti-human receptor blocking antibodies for 15 min at 4° C. and then stained for 20 min at 4° C. with anti-human CD34 (RRID:AB_10827793), CD133 (RRID:AB_244346), CD90 (RRID:AB_559869) antibodies. […]

[1] = 7.5 μM Orotic Acid or 1 mM UMP alone, similarly to dNs alone
[2] = 7.5 μM Orotic Acid or 1 mM UMP combined with 8 μM CsH

SMILES	effect on transduction efficiency of quiescent HSPC	LV transduction of unstimulated hHSPC vs DMSO control [1]	LV transduction of unstimulated hHSPC vs DMSO control [2]
Nc1ncnc2c1ncn2[C@H]1C[C@H](O)[C@@H](CO)O1 [dA, Deoxyadenosine]	did not observe any effect	–	–
O=c1ccn([C@@H]2O[C@H](COP(=O)(O)O)[C@@H](O)[C@H]2O)c(=O)[nH]1 [UMP, uridine 5′-monophosphate]	–	increase in LV transduction	further significantly increased
Nc1ccn([C@H]2C[C@H](O)[C@@H](CO)O2)c(=O)n1 [dC, Deoxycytidine]	gene marking levels comparable to the combination of all dNs	–	–
Nc1nc2c(ncn2[C@H]2C[C@H](O)[C@@H](CO)O2)c(=O)[nH]1 [dG, Deoxyguanosine]	did not observe any effect	–	–
O=C(O)c1cc(=O)[nH]c(=O)[nH]1 [OA, orotic acid]	–	increase in LV transduction	further significantly increased
